In patent US20180193414A1, “COMPOSITIONS AND METHODS FOR TREATING NEUROLOGICAL DISORDERS” (Coda Biotherapeutics, Inc., priority 2015, published 2018):

What was measured:
hM4D(Gi) DREADD = target: T1, hM4D(Gi) DREADD (Homo sapiens, UniProt P08173, A203G/Y113C); conditions: cited from earlier work
T1 construct: HA (N); host or cells: primary afferent nociceptors of female C57BL/6 mice transduced in vivo (intraneural AAV6-hSyn-HA-hM4D(Gi)-IRES-mCitrine), as reported by Iyer et al. 2016
T1 sequence (P08173 1-479 Y113C/A203G): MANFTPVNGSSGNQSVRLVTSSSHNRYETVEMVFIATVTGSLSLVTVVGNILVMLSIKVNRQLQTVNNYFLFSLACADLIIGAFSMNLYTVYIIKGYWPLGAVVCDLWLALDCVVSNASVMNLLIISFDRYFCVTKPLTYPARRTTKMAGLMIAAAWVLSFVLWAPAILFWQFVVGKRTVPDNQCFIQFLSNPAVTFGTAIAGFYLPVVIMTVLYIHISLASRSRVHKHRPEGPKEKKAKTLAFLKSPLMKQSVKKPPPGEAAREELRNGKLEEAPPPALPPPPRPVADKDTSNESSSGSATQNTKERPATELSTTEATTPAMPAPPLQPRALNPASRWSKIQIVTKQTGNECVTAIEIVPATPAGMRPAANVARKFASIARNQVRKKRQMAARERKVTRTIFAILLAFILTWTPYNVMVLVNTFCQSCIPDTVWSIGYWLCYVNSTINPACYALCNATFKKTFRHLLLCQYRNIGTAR

[1] = target: T2, human α-1 GlyRM(F207A+A288G) (Homo sapiens, UniProt P23415, A316G/F235A); assay: Mechanical withdrawal threshold (von Frey, up-down method) in spared nerve injury (SNI) model; assay type: in vivo, mice
T2 construct: host or cells: mouse dorsal horn neurons transduced in vivo with the AAV vector
T2 sequence (P23415 29-457 F235A/A316G): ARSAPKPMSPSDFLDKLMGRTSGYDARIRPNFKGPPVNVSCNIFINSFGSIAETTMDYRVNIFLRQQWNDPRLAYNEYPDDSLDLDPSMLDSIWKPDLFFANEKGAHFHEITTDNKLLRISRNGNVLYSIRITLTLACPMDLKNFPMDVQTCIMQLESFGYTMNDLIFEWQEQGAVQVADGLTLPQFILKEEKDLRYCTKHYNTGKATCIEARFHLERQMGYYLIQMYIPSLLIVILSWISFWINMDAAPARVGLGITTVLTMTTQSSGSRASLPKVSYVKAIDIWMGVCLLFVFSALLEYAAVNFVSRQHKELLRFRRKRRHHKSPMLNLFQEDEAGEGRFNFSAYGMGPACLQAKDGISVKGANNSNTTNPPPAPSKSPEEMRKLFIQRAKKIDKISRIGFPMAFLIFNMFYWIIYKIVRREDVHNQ
Excerpt: The expression cassette containing a human synapsin-1 (hSYN) promoter driving expression of the human α-1 GlyRM(F207A+A288G)-FLAG cDNA was constructed using standard molecular biology techniques (see also, FIG. 5 and SEQ ID NO:1 for description of the vector). This cassette was subcloned into a self-complementary AAV bacmid, purified, transfected into Sf9 insect cells to produce recombinant bacuvlovirus, and then amplified. Sf9 cells were double infected using the amplified recombinant baculovirus containing the hSYN-GlyRM cassette and another recombinant baculovirus containing the Rep and AAV6(Y705+731F+T492V) Cap genes to produce recombinant AAV vectors. These vectors were purified, viral titer was determined using qPCR (2.15e^13 vg/ml), and SDS-PAGE was used to verify the purity of AAV vectors (Virovek).
A dorsal hemilaminectomy was made at the level of the lumbar enlargement to expose two segments (about 1.5-2 mm) of lumbar spinal cord, after which the dura mater was incised and reflected. The viral solution was loaded into a glass micropipette (prefilled with mineral oil). The micropipette was connected to a manual micro-injector mounted on a stereotactic apparatus. The viral solution was targeted to the dorsal horn (left side). Along the rostro-caudal axis within the exposed region, 6 injections of 240 nl each were performed, in an equidistant linear fashion. After each injection, 1 min of resting time was observed and then the muscle layer was sutured, the skin closed with staples, and the animals were allowed to recover with heated-pad before they were returned to their home cages. Animals were perfused for histological analysis after the last behavior test.
To produce mechanical hypersensitivity in a model that mimics a neuropathic pain condition, the spared nerve injury (SNI) model, a validated model of mechanical allodynia was used (Shields et al., 2003, The Journal of Pain, 4, 465-470). This model was produced by the sectioning of the common peroneal and the sural nerves and isolating the tibial branch (see FIG. 7). Mechanical withdrawal threshold was assessed by placing mice on an elevated wire-mesh grid and stimulating the plantar surface of the hindpaw with von Frey filaments. The up-down method of Chaplan & Yaksh was used to determine mechanical thresholds before the spinal cord injection of the AAV-GlyRM. […] The hindpaw ipsilateral and contralateral to the vector injection was tested. […] Motor coordination was tested using an accelerating rotarod (Stoelting, USA) at a maximum speed of 33 rpm. The duration that the mouse spent on the rotarod was recorded, with a cut-off at 300 sec. Each mouse went through three training trials and was tested two hours later. Subsequently, all mice received a single IP injection of ivermectin (15 mg/kg or 10 mg/kg) and mechanical thresholds were again tested using the up-down method at 1, 2, 5, 7, and 13 days post SNI. […] The reversal lasted for at least 5 days. […] Animals were then perfused for histology.

[2] = target: T3, alpha 1 GlyR(F207A-A288G) (Homo sapiens, UniProt P23415, A316G/F235A); assay: Thermal withdrawal latency assay (infrared laser on shaved cheek) after trigeminal ganglion AAV injection; assay type: in vivo, Sprague-Dawley rats
T3 construct: expressed in transfected cells; host or cells: trigeminal ganglion neurons of adult Sprague-Dawley rats, transduced in vivo with AAV
T3 sequence (P23415 29-457 F235A/A316G): T2 sequence (P23415 29-457 F235A/A316G)
Protocol: On day 0, bilateral trigeminal ganglion injections of 10 microliters AAV vector containing the alpha 1 GlyR(F207A-A288G) transgene were performed in adult Sprague-Dawley rats. Two months following AAV injections, a single IP injection of ivermectin 10 mg/kg was administered to rats. The following day, rats were prepared for the thermal latency assay by shaving the fur off of their cheek, up to but not including the whisker pad. They were then placed in a 2.75 inch diameter×8 inch clear polycarbonate cylinder and allowed to acclimate to the environment. The rats naturally positioned themselves so their snout is just outside of the cylinder opening. Under video monitoring, the rats were then exposed to the beam of a 2W, infrared (808 nm) laser illumination focused to project a target size of approximately 1 mm×0.5 mm on the shaved cheek area. The rats then responded to the heat generated by the laser with an abrupt head position change (withdrawal reflex). The sequence was then repeated up to 10 trials on each side. The latency between the laser illumination onset and the head withdrawal reflex was measured from the video with video editing software allowing for frame by frame analysis.

GLYR(F207A/A288G) = target: T4, GLYR(F207A/A288G) (Homo sapiens, UniProt P23415, A316G/F235A); assay: Pain and anxiety behavioral assays in rodent models of chronic pain (CCI or SNI); assay type: in vivo; conditions: rodents with CCI or SNI, intraganglionic or intrathecal AAV6 GlyR(F207A/A288G) vector; 0.1-10.0 mg/kg per day
T4 construct: expressed in transfected cells; host or cells: rodent dorsal root or trigeminal ganglion neurons transduced in vivo with AAV6 vectors
T4 sequence (P23415 29-457 F235A/A316G): T2 sequence (P23415 29-457 F235A/A316G)
Excerpt: Day 0: Chronic pain is induced in rodent trigeminal ganglia or dorsal root ganglia using an established peripheral nerve injury method such as the chronic constriction injury (CCI, CO/CFA) or spared nerve injury (SNI) models. See Bennett & Xie. Pain. 1988, Decosterd & Woolf Pain. 2000, and Imamura, Kawamoto, & Nakanishi. Exp. Brain Res. 1997. In some instances, nerve injury may occur after viral vector injection.
Day 7: Intraganglionic or intrathecal injection of 10^8-10^10 vector genomes of AAV6(Y705F+Y731F+T492V)-HSYN-GLYR(F207A/A288G)-FLAG or AAV6-GLY(HSYN-GLYR(F207A/A288G)-FLAG in a volume of approximately 1.0-10 μL is performed in one or multiple dorsal root ganglia or trigeminal ganglia using published methods. See Vit, Ohara, Sundberg et al. Mol Pain. 2009 and Towne, Fischer, Kostic, et al. J Neurosci Methods. 2011, and Pertin, et al. Mol Pain. 2009.
Weeks 2-12 post CCI or SNI: Ivermectin is administered via oral gavage (P0), intraperitoneal injection (IP), subcutaneous injection (SC), or in drinking water for a final dose of 0.1-10.0 mg/kg per day. Pain and anxiety behavioral assays are performed to quantify level of analgesia using established nociception assay including operant assays, mechanical allodynia/hyperalgesia via Von Frey filaments, thermal allodynia/hyperalgesia via Hargreaves method, or anxiety behaviors via elevated plus maze. See review Odd-Geir Berge. […]

Row | Molecule | mechanical withdrawal thresholds (hM4D(Gi) DREADD; hM4D+ mice (AAV6-hSyn-HA-hM4D(Gi)-IRES-mCitrine intraneural), intraperitoneal administration) | Hargreaves thresholds (thermal sensation) (hM4D(Gi) DREADD; hM4D+ mice, after administration) | duration of analgesia in the SNI model ([1]; mice injected with SWB001, single IP injection of ivermectin (15 mg/kg) (FIG. 7)) | mechanical hypersensitivity (mechanical thresholds, von Frey) ([1]; mice with AAV-GlyRM injected into dorsal horn, SNI, ipsilateral hindpaw, single IP injection 15 mg/kg) | mechanical thresholds after repeat dose ([1]; mice, SNI, AAV-GlyRM, 10 mg/kg IP on the 13th day, after thresholds had returned to post-injury baseline) | mechanical thresholds during follow-up after repeat dose ([1]; mice, SNI, AAV-GlyRM, followed for 48 hours after 10 mg/kg IP) | duration of the reversal of mechanical hypersensitivity ([1]; mice, SNI, AAV-GlyRM, single IP injection 15 mg/kg) | mechanical threshold on the contralateral side (absence of vector) ([1]; mice, contralateral hindpaw without vector, single IP injection 15 mg/kg) | average thermal withdrawal latency ([2]; rats two months after bilateral trigeminal ganglion AAV injection, day after single IP 10 mg/kg, pre-treatment average 2.69 seconds) | hypoalgesic threshold shift in thermal pain sensitivity ([2]; rats, post versus pre IP 10 mg/kg) | improvement in pain related behaviors or anxiety over controls (GLYR(F207A/A288G))
1 | C[N+]1([O-])CCN(C2=Nc3cc(Cl)ccc3Nc3ccccc32)CC1 [CNO, clozapine-N-oxide] | increased mechanical withdrawal thresholds | Strong inhibition of Hargreaves thresholds | – | – | – | – | – | – | – | – | –
2 | ivermectin | – | – | 7 to 10 days | complete reversal of the mechanical hypersensitivity | recovery to non-injury baseline thresholds | thresholds remained at baseline | at least 5 days | no measurable effect | 5.19 s | 92.9% | 10%-500%
